Data reported in PMC10176470, “Engaging a Non-catalytic Cysteine Residue Drives Potent and Selective Inhibition of Caspase-6” (Journal of the American Chemical Society, 2023).

Legend:
Assay in all cases: SILAC proteomics / in-gel fluorescence, competition of probe 13-t labeling by 3a
[1] = molecular target: T1, proteins of HEK293T cells transiently overexpressing caspase-6 (Homo sapiens, UniProt P62258); settings: Comp; protein YWHAE P62258
T1 sequence (P62258 1-255): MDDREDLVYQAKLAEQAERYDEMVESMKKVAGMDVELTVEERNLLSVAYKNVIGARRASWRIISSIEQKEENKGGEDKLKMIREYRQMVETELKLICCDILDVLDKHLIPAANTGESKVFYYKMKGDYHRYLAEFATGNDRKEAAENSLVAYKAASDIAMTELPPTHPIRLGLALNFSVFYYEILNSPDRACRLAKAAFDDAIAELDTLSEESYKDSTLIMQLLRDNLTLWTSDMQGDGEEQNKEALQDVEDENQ

[2] = molecular target: T2, proteins of HEK293T cells transiently overexpressing caspase-6 (Homo sapiens, UniProt P04075); settings: Comp; protein ALDOA P04075
T2 sequence (P04075 1-364): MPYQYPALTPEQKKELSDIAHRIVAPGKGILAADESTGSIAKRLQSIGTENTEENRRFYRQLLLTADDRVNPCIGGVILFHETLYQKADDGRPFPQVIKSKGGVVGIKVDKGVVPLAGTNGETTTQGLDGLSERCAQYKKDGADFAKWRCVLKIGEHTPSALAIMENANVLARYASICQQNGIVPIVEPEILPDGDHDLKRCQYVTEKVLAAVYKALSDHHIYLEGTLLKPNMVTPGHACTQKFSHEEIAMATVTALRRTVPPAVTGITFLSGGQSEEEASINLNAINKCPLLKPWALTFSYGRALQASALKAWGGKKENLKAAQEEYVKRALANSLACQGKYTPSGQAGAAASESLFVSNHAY

[3] = molecular target: proteins of HEK293T cells transiently overexpressing caspase-6 (Homo sapiens, UniProt P60842); settings: Comp; protein EIF4A1 P60842
Chain of proteins of HEK293T cells transiently overexpressing caspase-6 (Homo sapiens, UniProt P60842) (P60842 whole entry): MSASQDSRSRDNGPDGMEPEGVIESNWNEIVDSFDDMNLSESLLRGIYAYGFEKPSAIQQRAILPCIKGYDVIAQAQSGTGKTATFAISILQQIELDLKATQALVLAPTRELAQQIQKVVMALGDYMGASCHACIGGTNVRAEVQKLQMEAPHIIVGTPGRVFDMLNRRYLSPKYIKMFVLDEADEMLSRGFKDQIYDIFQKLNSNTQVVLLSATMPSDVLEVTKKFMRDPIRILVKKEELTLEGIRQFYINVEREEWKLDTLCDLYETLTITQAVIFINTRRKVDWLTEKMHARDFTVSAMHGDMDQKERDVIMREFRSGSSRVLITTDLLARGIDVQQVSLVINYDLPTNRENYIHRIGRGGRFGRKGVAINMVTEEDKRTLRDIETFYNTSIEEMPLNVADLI

[4] = molecular target: T3, proteins of HEK293T cells transiently overexpressing caspase-6 (Homo sapiens, UniProt Q9UQ80); settings: Comp; protein PA2G4 Q9UQ80
T3 sequence (Q9UQ80 1-394): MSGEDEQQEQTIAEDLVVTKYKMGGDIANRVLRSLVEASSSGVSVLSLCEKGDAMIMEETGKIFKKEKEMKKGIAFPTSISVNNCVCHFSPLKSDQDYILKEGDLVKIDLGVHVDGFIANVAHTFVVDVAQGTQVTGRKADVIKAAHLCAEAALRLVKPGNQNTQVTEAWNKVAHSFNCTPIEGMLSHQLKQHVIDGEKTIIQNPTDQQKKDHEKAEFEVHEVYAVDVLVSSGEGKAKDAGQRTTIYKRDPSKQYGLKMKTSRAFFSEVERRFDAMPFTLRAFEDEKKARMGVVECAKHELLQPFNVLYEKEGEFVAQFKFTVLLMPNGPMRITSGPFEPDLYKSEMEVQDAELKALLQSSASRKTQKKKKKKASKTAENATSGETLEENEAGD

[5] = molecular target: proteins of HEK293T cells transiently overexpressing caspase-6 (Homo sapiens, UniProt P14625); settings: Comp; protein HSP90B1 P14625
Chain of proteins of HEK293T cells transiently overexpressing caspase-6 (Homo sapiens, UniProt P14625) (P14625 22-803): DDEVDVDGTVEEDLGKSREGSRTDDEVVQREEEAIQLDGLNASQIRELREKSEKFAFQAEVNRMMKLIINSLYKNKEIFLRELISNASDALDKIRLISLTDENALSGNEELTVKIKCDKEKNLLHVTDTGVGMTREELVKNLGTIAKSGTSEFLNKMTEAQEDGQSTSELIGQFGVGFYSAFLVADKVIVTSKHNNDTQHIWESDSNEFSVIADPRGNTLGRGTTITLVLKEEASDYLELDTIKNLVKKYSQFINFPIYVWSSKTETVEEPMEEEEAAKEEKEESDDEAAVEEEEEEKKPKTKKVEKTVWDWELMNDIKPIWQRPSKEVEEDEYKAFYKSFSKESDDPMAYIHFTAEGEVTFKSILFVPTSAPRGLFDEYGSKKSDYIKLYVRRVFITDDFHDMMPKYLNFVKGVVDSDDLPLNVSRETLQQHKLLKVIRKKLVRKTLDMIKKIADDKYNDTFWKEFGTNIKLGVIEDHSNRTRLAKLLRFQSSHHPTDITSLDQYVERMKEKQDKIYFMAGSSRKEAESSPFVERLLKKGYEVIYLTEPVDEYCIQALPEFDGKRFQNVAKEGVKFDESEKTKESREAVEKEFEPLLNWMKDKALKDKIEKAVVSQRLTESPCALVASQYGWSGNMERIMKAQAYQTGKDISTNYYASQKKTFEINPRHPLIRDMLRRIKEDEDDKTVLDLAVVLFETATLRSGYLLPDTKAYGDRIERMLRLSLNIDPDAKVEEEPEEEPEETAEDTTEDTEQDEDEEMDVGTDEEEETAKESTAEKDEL

[6] = molecular target: proteins of HEK293T cells transiently overexpressing caspase-6 (Homo sapiens, UniProt P27695); settings: Comp; protein APEX1 P27695
Chain of proteins of HEK293T cells transiently overexpressing caspase-6 (Homo sapiens, UniProt P27695) (P27695 whole entry): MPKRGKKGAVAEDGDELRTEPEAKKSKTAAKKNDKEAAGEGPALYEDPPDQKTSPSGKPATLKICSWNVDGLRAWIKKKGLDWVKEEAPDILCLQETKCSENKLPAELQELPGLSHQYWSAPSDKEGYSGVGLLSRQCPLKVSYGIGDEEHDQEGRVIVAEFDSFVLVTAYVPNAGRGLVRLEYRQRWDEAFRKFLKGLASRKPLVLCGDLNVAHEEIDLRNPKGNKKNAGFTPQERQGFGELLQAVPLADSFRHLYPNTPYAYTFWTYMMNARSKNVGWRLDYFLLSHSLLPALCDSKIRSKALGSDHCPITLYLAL

[7] = molecular target: proteins of HEK293T cells transiently overexpressing caspase-6 (Homo sapiens, UniProt Q13838); settings: Comp; protein DDX39B Q13838
Chain of proteins of HEK293T cells transiently overexpressing caspase-6 (Homo sapiens, UniProt Q13838) (Q13838 whole entry): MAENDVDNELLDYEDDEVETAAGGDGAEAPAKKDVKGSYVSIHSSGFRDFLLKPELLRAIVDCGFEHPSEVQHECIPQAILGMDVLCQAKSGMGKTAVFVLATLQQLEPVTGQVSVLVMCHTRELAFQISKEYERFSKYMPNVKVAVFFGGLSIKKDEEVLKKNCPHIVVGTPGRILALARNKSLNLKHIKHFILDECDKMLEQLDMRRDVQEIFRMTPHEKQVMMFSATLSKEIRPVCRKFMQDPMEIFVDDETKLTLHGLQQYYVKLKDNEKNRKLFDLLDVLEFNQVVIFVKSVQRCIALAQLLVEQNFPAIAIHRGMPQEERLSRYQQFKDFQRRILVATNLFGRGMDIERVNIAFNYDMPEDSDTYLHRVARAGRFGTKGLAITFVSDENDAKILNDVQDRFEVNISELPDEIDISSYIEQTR

[8] = molecular target: proteins of HEK293T cells transiently overexpressing caspase-6 (Homo sapiens, UniProt Q14974); settings: Comp; protein KPNB1 Q14974
Chain of proteins of HEK293T cells transiently overexpressing caspase-6 (Homo sapiens, UniProt Q14974) (Q14974 whole entry): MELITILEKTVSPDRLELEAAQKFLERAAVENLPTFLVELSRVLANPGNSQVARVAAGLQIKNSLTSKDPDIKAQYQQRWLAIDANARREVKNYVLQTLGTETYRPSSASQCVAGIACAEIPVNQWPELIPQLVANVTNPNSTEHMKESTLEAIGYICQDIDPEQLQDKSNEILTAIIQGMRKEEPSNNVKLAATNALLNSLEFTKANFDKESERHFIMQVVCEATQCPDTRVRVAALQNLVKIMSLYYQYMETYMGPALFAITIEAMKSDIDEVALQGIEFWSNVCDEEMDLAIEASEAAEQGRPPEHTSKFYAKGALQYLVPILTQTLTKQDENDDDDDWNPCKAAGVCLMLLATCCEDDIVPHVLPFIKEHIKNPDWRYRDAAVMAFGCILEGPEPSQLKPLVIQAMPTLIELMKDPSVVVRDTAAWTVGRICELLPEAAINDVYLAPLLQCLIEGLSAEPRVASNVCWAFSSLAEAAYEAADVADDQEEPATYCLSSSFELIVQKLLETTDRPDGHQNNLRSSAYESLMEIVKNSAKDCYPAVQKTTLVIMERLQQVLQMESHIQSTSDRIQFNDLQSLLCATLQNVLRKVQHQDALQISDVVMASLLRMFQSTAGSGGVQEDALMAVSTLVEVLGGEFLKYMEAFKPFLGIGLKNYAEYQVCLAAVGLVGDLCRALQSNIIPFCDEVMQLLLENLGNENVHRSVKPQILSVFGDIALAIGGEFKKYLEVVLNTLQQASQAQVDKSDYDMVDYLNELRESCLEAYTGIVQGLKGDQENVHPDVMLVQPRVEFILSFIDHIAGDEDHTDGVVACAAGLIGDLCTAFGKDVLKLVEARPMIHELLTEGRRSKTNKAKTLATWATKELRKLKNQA

[9] = molecular target: proteins of HEK293T cells transiently overexpressing caspase-6 (Homo sapiens, UniProt P46060); settings: Comp; protein RANGAP1 P46060
Chain of proteins of HEK293T cells transiently overexpressing caspase-6 (Homo sapiens, UniProt P46060) (P46060 whole entry): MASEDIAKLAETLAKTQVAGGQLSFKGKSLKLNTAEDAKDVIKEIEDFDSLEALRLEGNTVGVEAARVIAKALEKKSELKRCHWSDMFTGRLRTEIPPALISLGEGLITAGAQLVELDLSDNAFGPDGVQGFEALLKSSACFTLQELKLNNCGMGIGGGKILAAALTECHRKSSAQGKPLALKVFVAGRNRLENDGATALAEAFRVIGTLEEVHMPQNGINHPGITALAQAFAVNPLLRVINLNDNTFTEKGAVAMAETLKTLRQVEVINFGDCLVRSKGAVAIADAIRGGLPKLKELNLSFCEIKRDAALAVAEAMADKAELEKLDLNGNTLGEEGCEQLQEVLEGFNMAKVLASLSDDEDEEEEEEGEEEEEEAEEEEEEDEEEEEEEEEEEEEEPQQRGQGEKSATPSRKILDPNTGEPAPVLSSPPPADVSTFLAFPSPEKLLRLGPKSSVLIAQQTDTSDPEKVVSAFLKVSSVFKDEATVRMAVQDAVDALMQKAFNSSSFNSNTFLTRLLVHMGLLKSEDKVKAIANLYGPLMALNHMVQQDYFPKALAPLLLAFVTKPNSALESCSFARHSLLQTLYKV

[10] = molecular target: proteins of HEK293T cells transiently overexpressing caspase-6 (Homo sapiens, UniProt P09211)
Chain of proteins of HEK293T cells transiently overexpressing caspase-6 (Homo sapiens, UniProt P09211) (P09211 whole entry): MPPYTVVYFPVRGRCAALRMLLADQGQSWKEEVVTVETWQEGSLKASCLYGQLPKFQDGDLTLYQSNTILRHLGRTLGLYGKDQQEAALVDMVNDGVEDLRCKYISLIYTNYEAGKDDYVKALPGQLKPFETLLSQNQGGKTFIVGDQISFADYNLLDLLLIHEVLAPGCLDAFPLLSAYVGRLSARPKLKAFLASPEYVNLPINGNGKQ

[11] = molecular target: proteins of HEK293T cells transiently overexpressing caspase-6 (Homo sapiens, UniProt P46782); settings: Comp; protein RPS5 P46782
[12] = molecular target: proteins of HEK293T cells transiently overexpressing caspase-6 (Homo sapiens, UniProt P61247); settings: Comp; protein RPS3A P61247
[13] = molecular target: T4, proteins of HEK293T cells transiently overexpressing caspase-6 (Homo sapiens, UniProt P40926); settings: Comp; protein MDH2 P40926
T4 sequence (P40926 25-338): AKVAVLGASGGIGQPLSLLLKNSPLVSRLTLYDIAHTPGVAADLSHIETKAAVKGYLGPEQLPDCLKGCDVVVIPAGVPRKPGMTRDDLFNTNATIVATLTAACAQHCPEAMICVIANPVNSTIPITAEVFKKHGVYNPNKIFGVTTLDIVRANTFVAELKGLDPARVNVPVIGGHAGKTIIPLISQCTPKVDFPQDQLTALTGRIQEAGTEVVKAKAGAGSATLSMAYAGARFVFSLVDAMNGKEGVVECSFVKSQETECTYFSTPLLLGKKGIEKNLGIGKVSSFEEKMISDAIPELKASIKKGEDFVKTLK

[14] = protein GSTP1 (P09211), Exp Comp, analysis C6, p 0.5000, 2 peptides

Compound: C=CS(=O)(=O)N1C[C@H](C(=O)Nc2ccc(OC(F)(F)F)cc2)C[C@@H](c2ccccc2)C1 [3a]
- enrich.exp.med [1]: 0.6349
- enrich.exp.med [2]: 0.6768
- enrich.exp.med [3]: 0.5985
- enrich.exp.med [4]: 0.7436
- enrich.exp.med [5]: 0.7874
- enrich.exp.med [6]: 0.6367
- enrich.exp.med [7]: 0.6915
- enrich.exp.med [8]: 0.6036
- enrich.exp.med [9]: 0.6389
- enrich.exp.med ([10]; Comp, protein GSTP1 P09211): 0.9589
- enrich.exp.med.lin [10, 14]: 1.9438
- enrich.exp.med.log2 [10, 14]: 0.9589
- enrich.exp.med [11]: 0.6107
- enrich.exp.med [12]: 0.7684
- enrich.exp.med [13]: 0.5931
